In paper PMC6792352, “Limited Chemical Structural Diversity Found to Modulate Thyroid Hormone Receptor in the Tox21 Chemical Library” (Environmental Health Perspectives, 2019) one finds CC50 data, which are given here for 67 molecules.

Counter-ions that a name gives are not always drawn.

One series can be described thus: in vitro. Particulars: rat, gh3-tre-luc cells, AC50 (uM) modified / 1000.
As to `O=C(O)[C@H](O)[C@@H](O)[C@H](O[C@@H]1O[C@H](CO)[C@H](O)[C@H](O)[C@H]1O)[C@H](O)CO` [Lactobionic acid], the cytotoxic concentration (CC50) at 24 h was greater than 20 µM. `CCOC(=O)C(C)OC(=O)c1cc(Oc2ccc(C(F)(F)F)cc2Cl)ccc1[N+](=O)[O-]` (stereo not shown) [Lactofen] showed a CC50 at 24 h greater than 90 µM. On the same count and under the same terms, the figure for `OC[C@H]1O[C@@H](O[C@H]2[C@H](O)[C@@H](O)C(O)O[C@@H]2CO)[C@H](O)[C@@H](O)[C@H]1O` (stereo partly shown) [Lactose] is greater than 90 µM. Regarding `O=C(C[S+]([O-])Cc1ccco1)NC/C=C\COc1cc(CN2CCCCC2)ccn1` (stereo not shown) [Lafutidine], the CC50 at 24 h is greater than 50 µM. Turning to `Nc1ccn([C@@H]2CS[C@H](CO)O2)c(=O)n1` [Lamivudine], the CC50 at 24 h was greater than 90 µM. Still for that read-out and setting: the figure for `Nc1nnc(-c2cccc(Cl)c2Cl)c(N)n1` [Lamotrigine] is greater than 50 µM; for `CC(=O)O[C@H]1C[C@H](O[C@H]2[C@@H](O)C[C@H](O[C@H]3[C@@H](O)C[C@H](O[C@H]4CC[C@@]5(C)[C@H](CC[C@@H]6[C@@H]5CC[C@]5(C)[C@@H](C7=CC(=O)OC7)CC[C@]65O)C4)O[C@@H]3C)O[C@@H]2C)O[C@H](C)[C@H]1O[C@@H]1O[C@H](CO)[C@@H](O)[C@H](O)[C@H]1O` [Lanatoside A] it is greater than 50 µM. `CC(=O)O[C@H]1C[C@H](O[C@H]2[C@@H](O)C[C@H](O[C@H]3[C@@H](O)C[C@H](O[C@H]4CC[C@@]5(C)[C@H](CC[C@@H]6[C@@H]5CC[C@]5(C)[C@@H](C7=CC(=O)OC7)[C@@H](O)C[C@]65O)C4)O[C@@H]3C)O[C@@H]2C)O[C@H](C)[C@H]1O[C@@H]1O[C@H](CO)[C@@H](O)[C@H](O)[C@H]1O` [Lanatoside B] showed a 50% cytotoxic concentration (CC50) at 24 h greater than 50 µM. As to `CC(=O)O[C@H]1C[C@H](O[C@H]2[C@@H](O)C[C@H](O[C@H]3[C@@H](O)C[C@H](O[C@H]4CC[C@@]5(C)[C@H](CC[C@@H]6[C@@H]5C[C@@H](O)[C@]5(C)[C@@H](C7=CC(=O)OC7)CC[C@]65O)C4)O[C@@H]3C)O[C@@H]2C)O[C@H](C)[C@H]1O[C@@H]1O[C@H](CO)[C@@H](O)[C@H](O)[C@H]1O` [Lanatoside C], the cytotoxic concentration (CC50) at 24 h is greater than 50 µM. `CC1(C)OC[C@@H](COC(=O)CCc2ccc(OC[C@@H](O)CNCCNC(=O)N3CCOCC3)cc2)O1` [Landiolol hydrochloride]: the CC50 at 24 h is greater than 50 µM. The molecule `N#C/C(=C1/SCC(c2ccccc2Cl)S1)n1ccnc1` (stereo not shown) [Lanoconazole] showed a half-maximal cytotoxic concentration (CC50) at 24 h greater than 50 µM.

Regarding `C[C@H](CN1CCCC1)C(=O)c1ccc(C(F)(F)F)cc1` [Lanperisone hydrochloride], the CC50 at 24 h was greater than 50 µM.

`Cc1c(OCC(F)(F)F)ccnc1C[S+]([O-])c1nc2ccccc2[nH]1` (stereo not shown) [Lansoprazole]: the CC50 at 24 h was greater than 90 µM.

As to `CC(C)=CCC1=C(O)C(=O)c2ccccc2C1=O` [Lapachol], the midpoint of cytotoxicity, the CC50 at 24 h, lay at 10.7 µM. On the same count and under the same terms, the figure for `CS(=O)(=O)CCNCc1ccc(-c2ccc3ncnc(Nc4ccc(OCc5cccc(F)c5)c(Cl)c4)c3c2)o1` [Lapatinib] is greater than 50 µM. As for `CC[C@@H](C(=O)[C@@H](C)[C@@H](O)[C@H](C)CCc1ccc(C)c(O)c1C(=O)O)[C@H]1O[C@](CC)([C@H]2CC[C@](O)(CC)[C@H](C)O2)C[C@@H]1C` [Lasalocid sodium], the CC50 at 24 h stood at 2.85 µM. `CCCCCCCCCCCCSCCOCCOCCOCCOCCOCCOCCOCCOCCOCCO` [Laureth 10s]: the cytotoxic concentration (CC50) at 24 h is greater than 50 µM. In turn, `CCCCCCCCCCCCOCCCN` [Laurixamine] gave a CC50 at 24 h greater than 50 µM.

The molecule `CCCCCCCCCCCCN1CCCCCC1=O` [Laurocapram] gave a 50% cytotoxic concentration (CC50) at 24 h of 45.3 µM. Same read-out and setting: with `CCCCCCCCCCCCSC#N` [Lauryl thiocyanate] the figure was greater than 90 µM; with `CCCCCCCCCCCCN(CCO)CCO` [Lauryldiethanolamine], 14.8 µM. The same measure, in the same setting: with `NCCNC(=O)c1ccc(Cl)cn1` [Lazabemide hydrochloride] the figure was greater than 50 µM.

The molecule `COC(=O)C1=C(C)NC(COC(N)=O)=C(C(=O)OC(C)C)C1c1cccc(Cl)c1Cl` (stereo not shown) [Lemildipine] gave a CC50 at 24 h of 25.8 µM. On the same count and under the same terms, with `Nc1cccc2c1CN(C1CCC(=O)NC1=O)C2=O` (stereo not shown) [Lenalidomide] the figure was greater than 50 µM; with `O=C(CCCN1CCC(C(=O)c2ccc(F)cc2)CC1)c1ccc(F)cc1` [Lenperone], greater than 50 µM.

The molecule `Cc1ccnc2ccccc12` [Lepidine] gave a half-maximal cytotoxic concentration (CC50) at 24 h greater than 90 µM.

Molecule `C[C@]12O[C@H](C[C@]1(O)CO)n1c3ccccc3c3c4c(c5c6ccccc6n2c5c31)CNC4=O` [Lestaurtinib] yielded a CC50 at 24 h of 0.226 µM.

As to `CCNC(=O)[C@@H]1CCCN1C(=O)[C@H](CCCNC(=N)N)NC(=O)[C@H](CC(C)C)NC(=O)[C@@H](CC(C)C)NC(=O)[C@H](Cc1ccc(O)cc1)NC(=O)[C@H](CO)NC(=O)[C@H](Cc1c[nH]c2ccccc12)NC(=O)[C@H](Cc1c[nH]cn1)NC(=O)[C@@H]1CCC(=O)N1` [Leuprolide acetate salt], the CC50 at 24 h is greater than 50 µM. Same read-out and setting: the figure for `C=CCN1CC[C@]23CCCC[C@H]2[C@H]1Cc1ccc(O)cc13` [Levallorphan] is 28.6 µM; for `c1ccc([C@H]2CN3CCSC3=N2)cc1` [Levamisole hydrochloride] it is greater than 50 µM. The same measure, in the same setting: the figure for `CC1(C)Oc2ccc(C#N)cc2[C@@H](N2CCCC2=O)[C@@H]1O` [Levcromakalim] is greater than 50 µM; for `CC(C)(C)NC[C@H](O)COc1cccc2c1CCCC2=O` [Levobunolol hydrochloride] it is greater than 20 µM. Same read-out and setting: with `CCCCN1CCCC[C@H]1C(=O)Nc1c(C)cccc1C` [Levobupivacaine hydrochloride] the figure was greater than 50 µM; with `C[C@@H]1CN([C@H]2CC[C@](C#N)(c3ccc(F)cc3)CC2)CC[C@]1(C(=O)O)c1ccccc1` [Levocabastine hydrochloride], greater than 20 µM; with `CC(C)=CCC[C@](C)(O)[C@@H]1CC=C(C)CC1` [Levomenol], greater than 90 µM. Turning to `c1ccc2c(c1)Sc1ccccc1N2C[C@@H]1CN2CCC1CC2` [Levomequitazine], the cytotoxic concentration (CC50) at 24 h was greater than 50 µM. Still for that read-out and setting: the figure for `C#C[C@]1(O)CC[C@H]2[C@@H]3CCC4=CC(=O)CC[C@@H]4[C@H]3CC[C@@]21CC` [Levonorgestrel] is greater than 90 µM; for `C[C@@H]1CC(=O)NN=C1c1ccc(NN=C(C#N)C#N)cc1` [Levosimendan] it is 14.8 µM. `CCN1CCC[C@H]1CNC(=O)c1cc(S(N)(=O)=O)ccc1OC` [Levosulpiride] gave a CC50 at 24 h greater than 50 µM. On the same count and under the same terms, the figure for `N[C@@H](Cc1cc(I)c(Oc2cc(I)c(O)c(I)c2)c(I)c1)C(=O)O` [Levothyroxine] is greater than 60 µM. Still for that read-out and setting: the figure for `Clc1cccc(C(c2ccc3[nH]cnc3c2)n2ccnc2)c1` (stereo not shown) [Liarozole hydrochloride] is greater than 50 µM; for `CN=C(N)NC(=O)Nc1c(C)cccc1C` [Lidamidine] it is greater than 50 µM; for `Cc1cccc(C)c1NC(=O)CN(CC(=O)O)CC(=O)O` [Lidofenin] it is greater than 50 µM. Same read-out and setting: the figure for `Cc1cccc(C)c1NC(=O)CN1CCN(CCCC(c2ccc(F)cc2)c2ccc(F)cc2)CC1` [Lidoflazine] is 11.6 µM.

The molecule `CN1CCC(OC(=O)C(Oc2ccc(Cl)cc2)Oc2ccc(Cl)cc2)CC1` [Lifibrate] displayed a CC50 at 24 h of 27.6 µM. Molecule `CC1(C2CCC3(C)OC3C2)CO1` (stereo not shown) [Limonene dioxide] registered a CC50 at 24 h greater than 90 µM. Still for that read-out and setting: with `CC1(C)O[C@H]2CC(=O)OC[C@]23[C@H]2CC[C@@]4(C)[C@H](c5ccoc5)OC(=O)[C@H]5O[C@]54[C@]2(C)C(=O)C[C@@H]13` [Limoni] the figure was greater than 50 µM. Consider `C=CC(C)(O)CCC=C(C)C` (stereo not shown) [Linalool], for which the 50% cytotoxic concentration (CC50) at 24 h was greater than 90 µM.

`C=CC(C)(CCC=C(C)C)OC(C)=O` (stereo not shown) [Linalyl acetate] yielded a CC50 at 24 h greater than 90 µM. Still for that read-out and setting: the figure for `C=CC(C)(CCC=C(C)C)OC(=O)c1ccccc1N` (stereo not shown) [Linalyl anthranilate] is greater than 90 µM. On the same count and under the same terms, with `C=CC(C)(CCC=C(C)C)OC(=O)c1ccccc1` (stereo not shown) [Linalyl benzoate] the figure was 53.7 µM. Take `C=CC(C)(CCC=C(C)C)OC(=O)/C=C/c1ccccc1` (stereo not shown) [Linalyl cinnamate]: the CC50 at 24 h was greater than 90 µM. Turning to `C=CC(C)(CCC=C(C)C)OC=O` (stereo not shown) [Linalyl formate], the CC50 at 24 h is greater than 90 µM. On the same count and under the same terms, with `C=CC(C)(CCC=C(C)C)OC(=O)C(C)C` (stereo not shown) [Linalyl isobutyrate] the figure was greater than 90 µM; with `C=CC(C)(CCC=C(C)C)OC(=O)CC(C)C` (stereo not shown) [Linalyl isovalerate], greater than 90 µM. For the molecule `CCC[C@@H]1C[C@@H](C(=O)N[C@@H]([C@H]2O[C@H](SC)[C@H](O)[C@@H](O)[C@H]2O)[C@@H](C)O)N(C)C1` [Lincomycin hydrochloride], the CC50 at 24 h is greater than 50 µM. On to `CC(=O)NC[C@H]1CN(c2ccc(N3CCOCC3)c(F)c2)C(=O)O1` [Linezolid], for which the CC50 at 24 h is greater than 50 µM.

In turn, `CC/C=C\C/C=C\C/C=C\CCCCCCCC(=O)O` [Linolenic acid] came in with a CC50 at 24 h greater than 90 µM.

As to `O=C1N(c2ccccc2)c2ccccc2C1(Cc1ccncc1)Cc1ccncc1` [Linopirdine], the 50% cytotoxic concentration (CC50) at 24 h was greater than 50 µM. Still for that read-out and setting: with `O=C(O)COc1ccc(CCNS(=O)(=O)c2ccccc2)s1` [Linotroban] the figure was greater than 50 µM; with `O=C(O)Cn1c(C(=O)Nc2nc(-c3ccccc3Cl)cs2)cc2ccccc21` [Lintitript], greater than 50 µM. `CON(C)C(=O)Nc1ccc(Cl)c(Cl)c1` [Linuron]: the cytotoxic concentration (CC50) at 24 h is greater than 90 µM. `COc1cccc(N(C)C(=S)Oc2ccc3c(c2)CCCC3)n1` [Liranaftate] came in with a CC50 at 24 h greater than 50 µM. As to `NCCCC[C@H](N[C@@H](CCc1ccccc1)C(=O)O)C(=O)N1CCC[C@H]1C(=O)O` [Lisinopril dihydrate], the CC50 at 24 h was greater than 20 µM.

Staying with this series, now noted: rat, gh3-tre-luc cells, AC50 (uM) modified / 1000, Tox21_110001=Tox21_112051; viability, 1 nM T3 present, 24 h.
As for `C[C@H](N)[C@H](O)c1ccc(O)c(O)c1` [Levonordefrin], the cytotoxic concentration (CC50) at 24 h was determined as 22 µM.

The series is the same for the next values; noted with them: rat, gh3-tre-luc cells, AC50 (uM) modified / 1000, Tox21_110001=Tox21_301903; viability, 1 nM T3 present, 24 h.
Take `COP(=S)(Oc1cc(Cl)c(Br)cc1Cl)c1ccccc1` (stereo not shown) [Leptophos]: the CC50 at 24 h turned out to be 72.3 µM.

Still in this series, the particulars now being: rat, gh3-tre-luc cells, AC50 (uM) modified / 1000, Tox21_110001=Tox21_302103; viability, 1 nM T3 present, 24 h.
Molecule `CN(C)c1ccc(C(c2ccccc2)c2ccc(N(C)C)cc2)cc1` [Leucomalachite green] yielded a CC50 at 24 h greater than 90 µM.
